Numbers after ± are expanded uncertainties.
Assays:
[1] = xn = mol fraction of the nth substance listed; conditions: 298.15 K, 101 kPa, Liquid; for speed of sound: Quartz crystal interferometer (Mittal Enterprises, India)
[2] = 298.15 K, 101.33 kPa, Liquid; for viscosity: Capillary tube (Ostwald / Ubbelohde) method; for speed of sound: Quartz crystal interferometer (Mittal Enterprises, India); for mass density: Vibrating tube method

CC1CCCCC1 [methylcyclohexane] + CC(C)O
[1]
Conditions | mass density [kg/m3] | speed of sound [m/s] | viscosity [mPa·s]
x1 = 0.0648 | 778.57 ± 0.46 | – | 1.771 ± 0.022
x1 = 0.1102 | 776.98 ± 0.46 | – | 1.589 ± 0.02
x1 = 0.1123 | – | 1143 ± 4 | –
x1 = 0.1475 | 775.78 ± 0.46 | – | 1.462 ± 0.019
x1 = 0.2041 | 774.1 ± 0.46 | – | 1.315 ± 0.017
x1 = 0.2053 | – | 1143 ± 4 | –
x1 = 0.2422 | 773.07 ± 0.46 | – | 1.232 ± 0.016
x1 = 0.303 | 771.57 ± 0.46 | – | 1.113 ± 0.015
x1 = 0.3034 | – | 1144 ± 4 | –
x1 = 0.3511 | 770.5 ± 0.46 | – | 1.034 ± 0.014
x1 = 0.3937 | – | 1148 ± 4 | –
x1 = 0.3947 | 769.61 ± 0.46 | – | 0.975 ± 0.013
x1 = 0.4603 | 768.4 ± 0.46 | – | 0.896 ± 0.012
x1 = 0.4954 | 767.81 ± 0.46 | – | 0.86 ± 0.012
x1 = 0.5031 | – | 1155 ± 4 | –
x1 = 0.5589 | 766.86 ± 0.46 | – | 0.801 ± 0.011
x1 = 0.578 | 766.6 ± 0.46 | – | 0.789 ± 0.011
x1 = 0.5788 | – | 1160 ± 4 | –
x1 = 0.6707 | 765.53 ± 0.46 | – | 0.734 ± 0.01
x1 = 0.6715 | – | 1168 ± 4 | –
x1 = 0.7466 | – | 1176 ± 4 | –
x1 = 0.7715 | – | 1178 ± 4 | –
x1 = 0.7727 | 764.75 ± 0.46 | – | 0.695 ± 0.01
x1 = 0.8299 | – | 1184 ± 4 | –
x1 = 0.8993 | – | 1194 ± 4 | –
x1 = 0.9011 | 764.45 ± 0.46 | – | 0.679 ± 0.01
x1 = 0.9472 | – | 1201 ± 4 | –

CC1CCCCC1 [methylcyclohexane] + CCC(C)O
[1]
Conditions | mass density [kg/m3] | speed of sound [m/s] | viscosity [mPa·s]
x1 = 0.0988 | – | 1207 ± 4 | –
x1 = 0.1026 | 796.47 ± 0.46 | – | 2.207 ± 0.028
x1 = 0.1536 | 793.6 ± 0.46 | – | 1.933 ± 0.024
x1 = 0.2015 | 791.01 ± 0.46 | 1199 ± 4 | 1.72 ± 0.022
x1 = 0.2544 | 788.28 ± 0.46 | – | 1.509 ± 0.019
x1 = 0.3058 | – | 1193 ± 4 | –
x1 = 0.3307 | 784.56 ± 0.46 | – | 1.281 ± 0.017
x1 = 0.3604 | 783.2 ± 0.46 | – | 1.216 ± 0.016
x1 = 0.3993 | – | 1190 ± 4 | –
x1 = 0.4086 | 781.07 ± 0.46 | – | 1.107 ± 0.015
x1 = 0.4679 | 778.61 ± 0.46 | – | 1.002 ± 0.013
x1 = 0.5007 | – | 1189 ± 4 | –
x1 = 0.5012 | 777.3 ± 0.46 | – | 0.953 ± 0.013
x1 = 0.5872 | 774.19 ± 0.46 | – | 0.856 ± 0.012
x1 = 0.6001 | – | 1189 ± 4 | –
x1 = 0.6926 | 770.91 ± 0.46 | – | 0.77 ± 0.011
x1 = 0.7 | – | 1192 ± 4 | –
x1 = 0.7737 | – | 1196 ± 4 | –
x1 = 0.7844 | 768.54 ± 0.46 | – | 0.729 ± 0.01
x1 = 0.8916 | 766.35 ± 0.46 | – | 0.696 ± 0.01
x1 = 0.8996 | – | 1203 ± 4 | –
x1 = 0.9489 | – | 1206 ± 4 | –

CC1CCCCC1 [methylcyclohexane] + CCO
[1]
Conditions | mass density [kg/m3] | speed of sound [m/s] | viscosity [mPa·s]
x1 = 0.0499 | 782.02 ± 0.46 | – | 1.034 ± 0.014
x1 = 0.1024 | 779.14 ± 0.46 | – | 0.987 ± 0.013
x1 = 0.1037 | – | 1146 ± 4 | –
x1 = 0.1492 | 776.99 ± 0.46 | – | 0.949 ± 0.013
x1 = 0.1893 | – | 1151 ± 4 | –
x1 = 0.194 | 775.25 ± 0.46 | – | 0.915 ± 0.012
x1 = 0.2467 | 773.53 ± 0.46 | – | 0.886 ± 0.012
x1 = 0.313 | 771.77 ± 0.46 | – | 0.853 ± 0.012
x1 = 0.3143 | – | 1157 ± 4 | –
x1 = 0.3363 | 771.24 ± 0.46 | – | 0.841 ± 0.011
x1 = 0.4007 | – | 1162 ± 4 | –
x1 = 0.4015 | 769.94 ± 0.46 | – | 0.81 ± 0.011
x1 = 0.4438 | 769.21 ± 0.46 | – | 0.79 ± 0.011
x1 = 0.4752 | 768.72 ± 0.46 | – | 0.776 ± 0.011
x1 = 0.4788 | – | 1166 ± 4 | –
x1 = 0.5844 | 767.23 ± 0.46 | – | 0.732 ± 0.01
x1 = 0.5884 | – | 1173 ± 4 | –
x1 = 0.6993 | – | 1181 ± 4 | –
x1 = 0.7002 | 765.95 ± 0.46 | – | 0.692 ± 0.01
x1 = 0.8147 | 765.03 ± 0.46 | – | 0.672 ± 0.01
x1 = 0.8209 | – | 1191 ± 4 | –
x1 = 0.8864 | 764.74 ± 0.46 | – | 0.667 ± 0.01
x1 = 0.8943 | – | 1196 ± 4 | –
x1 = 0.9473 | – | 1202 ± 4 | –

CCCC(C)O (stereo not given) [pentan-2-ol]
[2]
Conditions | mass density [kg/m3] | speed of sound [m/s] | viscosity [mPa·s]
– | 805.4 ± 0.83 | 1235 ± 3 | 3.421 ± 0.039

CCCC(C)O (stereo not given) [pentan-2-ol] + CC1CCCCC1
[1]
Conditions | mass density [kg/m3] | speed of sound [m/s] | viscosity [mPa·s]
x2 = 0.067 | 801.75 ± 0.82 | – | 2.764 ± 0.041
x2 = 0.1011 | 799.88 ± 0.8 | – | 2.501 ± 0.037
x2 = 0.1026 | – | 1227 ± 4 | –
x2 = 0.1561 | 796.91 ± 0.78 | – | 2.148 ± 0.032
x2 = 0.2018 | – | 1219 ± 4 | –
x2 = 0.2088 | 794.12 ± 0.76 | – | 1.863 ± 0.027
x2 = 0.2653 | 791.21 ± 0.73 | – | 1.618 ± 0.024
x2 = 0.2991 | 789.53 ± 0.72 | – | 1.488 ± 0.022
x2 = 0.3077 | – | 1211 ± 4 | –
x2 = 0.3581 | 786.7 ± 0.7 | – | 1.317 ± 0.019
x2 = 0.3974 | 784.89 ± 0.68 | – | 1.219 ± 0.018
x2 = 0.3999 | – | 1206 ± 4 | –
x2 = 0.4481 | 782.64 ± 0.66 | – | 1.113 ± 0.016
x2 = 0.4885 | 780.93 ± 0.64 | – | 1.044 ± 0.015
x2 = 0.4976 | – | 1203 ± 4 | –
x2 = 0.5997 | – | 1202 ± 4 | –
x2 = 0.6007 | 776.49 ± 0.6 | – | 0.901 ± 0.013
x2 = 0.6973 | 773.05 ± 0.56 | – | 0.819 ± 0.012
x2 = 0.6984 | – | 1204 ± 4 | –
x2 = 0.8001 | 769.78 ± 0.53 | – | 0.75 ± 0.011
x2 = 0.8007 | – | 1207 ± 4 | –
x2 = 0.8981 | 767.12 ± 0.49 | – | 0.704 ± 0.01
x2 = 0.8998 | – | 1211 ± 4 | –
x2 = 0.9488 | – | 1211 ± 4 | –

CC(C)O [propan-2-ol]
[2]
Conditions | mass density [kg/m3] | speed of sound [m/s] | viscosity [mPa·s]
– | 781.06 ± 0.41 | 1142 ± 2 | 2.098 ± 0.016

Source: the NIST ThermoML archive (doi:10.1016/j.jct.2005.04.019)
